Measurements as given in patent publication US20230102554A1 (GB002, INC., priority 2019, published 2023).

Assays:
[1] = biological target: T1, Human PDGFRβ, cytoplasmic domain (GST-PDGFRβ) (Homo sapiens, UniProt P09619); test: Human PDGFRβ biochemical inhibition assay (off-chip Mobility Shift Assay)
T1 construct: made in house
In short: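 GST-tagged cytoplasmic domain (aa 557-1106) from baculovirus was incubated 1 h at room temperature with compound, CSKtide, ATP at Km and Mg²⁺ in HEPES buffer, pH 7.5. Phosphorylated and unphosphorylated peptide were separated by off-chip mobility shift, and the product ratio P/(P+S) gave percent inhibition.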

[2] = biological target: T2, Human PDGFRα, cytoplasmic domain (GST-PDGFRα) (Homo sapiens, UniProt P16234); test: Human PDGFRα biochemical inhibition assay (off-chip Mobility Shift Assay)
T2 construct: made in house
T2 sequence (P16234 550-1089 T674I): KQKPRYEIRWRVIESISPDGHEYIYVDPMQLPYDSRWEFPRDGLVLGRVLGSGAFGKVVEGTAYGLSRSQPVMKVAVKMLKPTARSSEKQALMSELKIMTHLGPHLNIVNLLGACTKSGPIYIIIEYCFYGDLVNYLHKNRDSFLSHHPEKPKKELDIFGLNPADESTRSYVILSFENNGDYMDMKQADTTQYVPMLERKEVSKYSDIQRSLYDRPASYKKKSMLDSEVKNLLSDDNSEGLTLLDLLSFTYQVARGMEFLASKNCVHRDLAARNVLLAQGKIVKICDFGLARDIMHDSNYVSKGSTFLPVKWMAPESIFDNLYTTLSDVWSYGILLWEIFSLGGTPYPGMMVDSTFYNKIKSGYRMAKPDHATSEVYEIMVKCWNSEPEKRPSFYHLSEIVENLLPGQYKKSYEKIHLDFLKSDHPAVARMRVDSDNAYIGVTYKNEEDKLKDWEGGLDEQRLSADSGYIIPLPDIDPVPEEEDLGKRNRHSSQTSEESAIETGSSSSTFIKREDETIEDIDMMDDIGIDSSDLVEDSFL

T1 sequence (P09619 with tags, fused parts or gaps): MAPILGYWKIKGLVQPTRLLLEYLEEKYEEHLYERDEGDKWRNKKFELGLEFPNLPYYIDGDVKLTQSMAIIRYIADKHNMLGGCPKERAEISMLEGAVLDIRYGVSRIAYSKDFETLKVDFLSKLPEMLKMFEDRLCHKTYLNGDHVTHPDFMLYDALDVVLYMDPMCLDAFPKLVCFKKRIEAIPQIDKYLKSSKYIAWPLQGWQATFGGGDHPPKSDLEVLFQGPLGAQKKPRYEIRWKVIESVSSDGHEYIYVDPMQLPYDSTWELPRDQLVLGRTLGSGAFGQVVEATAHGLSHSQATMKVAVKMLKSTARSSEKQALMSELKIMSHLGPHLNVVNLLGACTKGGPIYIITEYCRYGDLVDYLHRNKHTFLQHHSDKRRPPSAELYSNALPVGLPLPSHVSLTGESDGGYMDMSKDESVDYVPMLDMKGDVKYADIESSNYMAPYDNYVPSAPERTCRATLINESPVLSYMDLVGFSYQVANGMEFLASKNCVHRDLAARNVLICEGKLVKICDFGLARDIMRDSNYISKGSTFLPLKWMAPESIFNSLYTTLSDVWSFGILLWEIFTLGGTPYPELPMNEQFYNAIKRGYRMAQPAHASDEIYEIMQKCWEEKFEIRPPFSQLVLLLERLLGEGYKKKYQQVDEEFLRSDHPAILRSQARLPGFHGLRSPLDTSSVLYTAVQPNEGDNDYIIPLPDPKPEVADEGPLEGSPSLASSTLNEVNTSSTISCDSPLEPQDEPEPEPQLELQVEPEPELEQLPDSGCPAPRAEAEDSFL

| SMILES | IC50 [1] [nM] | IC50 [2] [nM] |
| --- | --- | --- |
| Cc1cncc(C(=O)Nc2cccc([C@H](C)Nc3cnc4cn(CCN5CCOCC5)nc4n3)c2)c1 [Compound 278, (S)-5-methyl-N-(3-(1-((2-(2-morpholinoethyl)-2H-pyrazolo[3,4-b]pyrazin-6-yl)amino)ethyl)phenyl) nicotinamide] | ≥ 1000 | 300 to 1000 |
| CCn1cc2ncc(N[C@@H](C)c3cccc(NC(=O)c4ccc(CN5CCN(C)CC5)c(C5CC5)c4)c3)nc2n1 [Compound 502, (S)-3-cyclopropyl-N-(3-(1-((2-ethyl-2H-pyrazolo[3,4-b]pyrazin-6-yl)amino)ethyl)phenyl)-4-((4-methylpiperazin-1-yl)methyl)benzamide] | < 300 | < 300 |
| CCn1cc2ncc(N[C@@H](C)c3cccc(NC(=O)c4cnn(C(C)C)c4)c3)nc2n1 [Compound 301, (S)-N-(3-(1-((2-ethyl-2H-pyrazolo[3,4-b]pyrazin-6-yl)amino)ethyl)phenyl)-1-isopropyl-1H-pyrazole-4-carboxamide] | < 300 | < 300 |
| CCn1cc2ncc(N[C@@H](C)c3cc(NC(=O)c4ccc(CN5CCCC5)c(C(F)(F)F)c4)ccc3F)nc2n1 [Compound 443, (S)-N-(3-(1-((2-ethyl-2H-pyrazolo[3,4-b]pyrazin-6-yl)amino)ethyl)-4-fluorophenyl)-4-(pyrrolidin-1-ylmethyl)-3-(trifluoromethyl)benzamide] | < 300 | < 300 |
| C[C@H](Nc1cnc2[nH]cc(-c3cnn(C)c3)c2n1)c1cccc(NC(=O)c2cnc(C(F)(F)F)s2)c1 [Compound 582, (S)-N-(3-(1-((7-(1-methyl-1H-pyrazol-4-yl)-5H-pyrrolo[2,3-b]pyrazin-2-yl)amino)ethyl)phenyl)-2-(trifluoromethyl) thiazole-5-carboxamide] | 300 to 1000 | 300 to 1000 |
| CCn1cc2ncc(N[C@@H](C)c3cccc(NC(=O)c4ccc(CN5CCC5)c(Cl)c4)c3)nc2n1 [Compound 486, (S)-4-(azetidin-1-ylmethyl)-3-chloro-N-(3-(1-((2-ethyl-2H-pyrazolo[3,4-b]pyrazin-6-yl)amino)ethyl)phenyl)benzamide] | < 300 | < 300 |
| CCOc1ccc(C(=O)Nc2cccc([C@H](C)Nc3cnc4cn(CC)nc4n3)c2)cn1 [Compound 286, (S)-6-ethoxy-N-(3-(1-((2-ethyl-2H-pyrazolo[3,4-b]pyrazin-6-yl)amino)ethyl)phenyl) nicotinamide] | 300 to 1000 | < 300 |
| CCn1cc2ncc(N[C@@H](C)c3cccc(NC(=O)c4cnc(C)s4)c3)nc2n1 [Compound 294, (S)-N-(3-(1-((2-ethyl-2H-pyrazolo[3,4-b]pyrazin-6-yl)amino)ethyl)phenyl)-2-methylthiazole-5-carboxamide] | 300 to 1000 | 300 to 1000 |
| CCn1cc2ncc(N[C@@H](C)c3cccc(NC(=O)c4ccc(N5CCOCC5)c(C)c4)c3)nc2n1 [Compound 386, (S)-N-(3-(1-((2-ethyl-2H-pvrazolo[3,4-b]pyrazin-6-yl)amino)ethyl)phenyl)-3-methyl-4-morpholinobenzamide] | < 300 | < 300 |
| CCn1cc2ncc(N[C@@H](C)c3cccc(NC(=O)c4cnc(N5CCOCC5)s4)c3)nc2n1 [Compound 339, (S)-N-(3-(1-((2-ethyl-2H-pyrazolo[3,4-b]pyrazin-6-yl)amino)ethyl)phenyl)-2-morpholinothiazole-5-carboxamide] | 300 to 1000 | < 300 |
| CCn1cc2ncc(N[C@@H](C)c3cccc(NC(=O)c4ccc(N5CCCC5)nc4)c3)nc2n1 [Compound 375, (S)-N-(3-(1-((2-ethyl-2H-pyrazolo[3,4-b]pyrazin-6-yl)amino)ethyl)phenyl)-6-(pyrrolidin-1-yl)nicotinamide] | 300 to 1000 | < 300 |
| CCn1cc2ncc(N[C@@H](C)c3cccc(NC(=O)Nc4ccc(NC)nc4)c3)nc2n1 [Compound 738, (S)-1-(3-(1-((2-ethyl-2H-pyrazolo[3,4-b]pyrazin-6-yl)amino)ethyl)phenyl)-3-(6-(methylamino)pyridin-3-yl)urea] | ≥ 1000 | 300 to 1000 |
